In PMC7217877, “N-AS-triggered SPMs are direct regulators of microglia in a model of Alzheimer’s disease” (Nature Communications, 2020):

Legend:
COX2 = test: SphK1-mediated COX2 acetylation with [14C] acetyl-CoA (ATP competition, SphK1 mutants; Supplementary Fig 1h,i); assay type: biochemical, human; details: ATP 0-1000 µM as competitor of acetyl-CoA
Source text: Single point mutations in SphK1 (R56A, R57A, R24A, R185A, D178A, and F192A) and COX2 (S565A, N181A, T564A, and S567A) were generated using the In-Fusion Cloning Kits (Clontech) and ORF cDNA expression plasmids of human SphK1 and COX2 gene (Sino Biological Inc, HG15679-NH and HG12036-NH), according to the manufacturer’s instructions. The forward and reverse primers described in Supplementary Table 4. The SphK1 WT, SphK1 mutants, COX2 WT, and COX2 mutant plasmids were transformed in the One shot TOP 10 competent cell (Invitrogen). The bacteria were grown in Luria-Bertani (LB, Invitrogen) plates supplemented with 50 μg ml^−1 kanamycin (Sigma-Aldrich) at 37 °C. The bacterial cell pellets were resuspended in lysis buffer containing 20 mM sodium phosphate (GE Healthcare), 500 mM NaCl (GE Healthcare), 20 mM imidazole (pH 7.4) (GE Healthcare), 0.2 mg ml^−1 lysozyme (Sigma-Aldrich), 20 μg ml^−1 DNase I (Roche), 1 mM MgCl2 (Sigma-Aldrich), and 1 mM PMSF (Sigma-Aldrich) before being lysed by sonication and clarified by centrifugation at 15,493×g for 10 min. Proteins were purified from the soluble fraction using His-Spin Trap columns (GE Healthcare) and the binding and acetylation assays were performed.
Acetylation assays were performed according to previously described procedures with minor modifications. […] N-AS (2 μCi, ARC UK Ltd, ARC-1024) at 37 °C for 2 h. [^14C] aspirin (2 μCi, ARC UK Ltd, ARC-0473) was conducted as the positive control. The reactions were terminated by placing the reaction tubes in ice for 5 min. To evaluate in vivo neuronal and microglial COX2 acetylation, 10 μCi [^14C] N-AS was orally administrated to 9-months-old WT and APP/PS1 mice. After 1 h, neuron and microglia were isolated and sonicated in culture media. To immunoprecipitate acetylated COX2, the sample was incubated with COX2 antibody (Abcam, ab15191) at 4 °C for 24 h and precipitated by adding 50 μl of protein-A sepharose (GE Healthcare). Acetylated COX2 proteins bound to the beads were analyzed using a Tri-Carb 3110TR liquid scintillation counter (Perkin-Elmer).

[1] = tested on: immortalized human microglia; test: LM-SPM profile of human microglia (LC-MS/MS, Supplementary Table 3, Fig 6d); assay type: cell-based
[2] = tested on: immortalized human microglia; test: ac-S565 COX2 in human microglia (western blot, immunofluorescence, Supplementary Fig 6b,c); assay type: cell-based; details: zileuton with N-AS in Aβ-treated human microglia vs without zileuton
Experimental: To confirm the generation and roles of N-AS in neurons, cells from E18 C57BL/6 mice were prepared as previously described. Cortices were dissected and then dissociated followed by incubation in papain (Worthington) at 37 °C for 15 min. Neurons were plated on poly-L-lysine-coated coverslips with neuronal culture medium, serum-free Neurobasal medium (Gibco) containing 2% B27 supplements (Gibco), 1 mM Glutamax supplement (Gibco), and 100 U ml^−1 streptomycin/ 100 U ml^−1 penicillin (Gibco) at 37 °C in a humidified atmosphere of 5% CO2. Aβ 1–42 (10 μM, 24 h, Invitrogen, 03112) was exposed to neurons and the cells were analyzed for the generation and roles of N-AS. Primary astrocyte cultures were prepared from C57BL/6 mice as described previously. In brief, after removal of the meninges, postnatal day 7 (P7) mouse brain tissues were minced and incubated in a rocking water bath at 37 °C for 30 min in the presence of 0.25% trypsin-EDTA (Sigma-Aldrich). Enzyme-digested dissociated cells were triturated with astrocyte-specific medium (DMEM/F12 containing 10% FBS and 1% penicillin-streptomycin) and centrifuged at 155×g for 8 min. The pellet was resuspended in astrocyte-specific medium and passed through a 40-μm cell strainer. The filtrate was allowed pre-adherence for 30 min to remove any contamination from fibroblasts before being seeded in dishes and the addition of astrocyte-specific medium. To split the cells, Ara-C was added to the dishes and they were then placed in a heated shaker for 6–7 h. The medium was removed from the dishes, and trypsin-EDTA was added to the dish and incubated at 37 °C for 5–10 min. After centrifugation at 155×g for 8 min, the supernatant was removed, and the astrocytes were maintained in culture by feeding […] with astrocyte-specific medium. Primary microglia cultures were prepared from C57BL/6 mice as described previously. In brief, the cortices of 2-months-old mice were minced in Hibernate A (Gibco)/B27 supplements (Gibco) medium and dissociated using papain (Worthington) solution. After tissue trituration, cells were separated by Optiprep (Sigma-Aldrich) density gradient centrifugation. Microglia were plated with microglia-specific medium (DMEM/F12 containing 10% FBS and 1% penicillin-streptomycin). The immortalized human microglia (Applied Biologics Materials, T0251) were cultured in PriGrow III (Applied Biologics Materials, TM003) (supplemented with 10% FBS and 1% penicillin-streptomycin) at 37 °C in a humidified atmosphere of 5% CO2. […] The human microglia treated with Aβ 1–42 and/or zileuton was incubated with N-AS (2.5 μM, 2 h, Sigma-Aldrich, 01912), and were analyzed for the generation and roles of N-AS.
Thioflavin S (Sigma-Aldrich) staining was carried out according to previously described procedures. We used 6E10 (mouse, 1:100, Signet, SIG39300), anti-20G10 (mouse, 1:1000, provided by D. R. Howlett, GlaxoSmithKline, Harlow, Essex, UK) for Aβ42, anti-G30 (rabbit, 1:1000, provided by D. R. Howlett) for Aβ40, SMA (mouse, 1:400, Sigma-Aldrich, A2547), AT8 (mouse, 1:500, Thermo Fisher Scientific, MN1020), Caspase-3 (mouse, 1:200, Novus Biologicals, NB100-56708), ac-S565 (rabbit, 1:100), COX2 (mouse, 1:250, Thermo Fisher Scientific, 35-8200), Iba1 (rabbit, 1:500, Wako, 019-19941 and goat, Abcam, ab5076), NeuN (mouse, 1:500, Millipore, MAB177), GFAP (rabbit, 1:500, Dako, N1506 and chicken, 1:500, Abcam, ab4674), and Lamp1 (mouse, 1:200, Abcam, ab24170). The sections were analyzed with a laser-scanning confocal microscope (FV3000; Olympus) or with a BX51 microscope (Olympus). MetaMorph software (Molecular Devices) was used to quantification. Three-dimensional reconstruction of microglia was recorded and analyzed using IMARIS software (Bitplane)[11]. […]

[3] = tested on: immortalized human microglia; test: live-cell phagocytosis assay (bead uptake, Supplementary Fig 6e,f); assay type: cell-based; details: zileuton with N-AS in Aβ-treated human microglia
Experimental: Live-cell phagocytosis assays were performed according to previously described procedures with minor modifications. Briefly, in a glass bottom cell culture dish (SPL, 101350), adult SV40 immortalized human microglia cells (Applied Biologics Materials, T0251) were seeded for phagocytosis assay. […] After incubation, the microglia were treated with 0 or 2.5 μM N-AS (Sigma-Aldrich, 01912) at 37 °C for 2 h. FITC beads (Invitrogen) preopsonized in FBS (Gibco) were added at a concentration at 0.01% and then immediately observed using a laser scanning confocal microscope equipped with a live cell chamber system (FV3000, Olympus) for 2 h. Confocal images were collected every 5 min for 2 h and analyzed using the ImageJ software (National Institutes of Health).

[4] = stability (isomerization) of acetyl sphingosine isomers in phosphate buffer pH 7.4 (LC-ELSD); assay type: physicochemical
Experimental: To a solution of 1-O-AS (0.25 mg) or 3-O-AS (0.25 mg) in water (400 μl) and DMSO (50 μl) at RT was added sodium phosphate buffer (pH 7.4, 0.1 M, 50 μl). The solution was mixed homogeneously with micropipette and was incubated at 25 °C for 10 min. Reverse-phase HPLC was performed using Agilent 1220 coupled with Agilent 1260 Infinity ELSD. Phenomenex Kinetex 1.7 μm C8 100 A ([…] LC column) at a flow rate of 0.5 ml min^−1 was used. A gradient of acetonitrile with 0.1% formic acid was used as an eluent.

## Nc1ncnc2c1ncn2[C@@H]1O[C@H](COP(=O)(O)OP(=O)(O)OP(=O)(O)O)[C@@H](O)[C@H]1O [ATP]
COX2
  SphK1-mediated COX2 acetylation, in words: inhibited in a concentration dependent manner

## CC(c1cc2ccccc2s1)N(O)C(N)=O (centres unmarked) [zileuton, reference compound]
[1]; zileuton treatment
  LTB4, in words: LTB4 was not detected
  PGE2, in words: reduced PGE2
[1]; zileuton with N-AS in Aβ-treated human microglia
  production of N-AS-triggered SPMs, in words: inhibited
[2]
  N-AS-induced COX2 acetylation, in words: no significant
[3]
  restoration of phagocytic capacity, in words: inhibited

## CCCCCCCCCCCCC/C=C/[C@@H](O)[C@@H](N)COC(C)=O.O=C(O)C(F)(F)F [1-O-AS, (2S,3R,E)-1-Acetoxy-3-hydroxyoctadec-4-en-2-aminium trifluoroacetate]
[4]
  time to isomerization to N-AS: less than 10 min

## CCCCCCCCCCCCC/C=C/[C@@H](OC(C)=O)[C@@H](N)CO.O=C(O)C(F)(F)F [3-O-AS, (2S,3R,E)-3-Acetoxy-1-hydroxyoctadec-4-en-2-aminium trifluoroacetate]
[4]
  time to isomerization to N-AS: less than 10 min
